# Laboratory results published in paper PMC9775191, “A Subset Screen of the Compounds Australia Scaffold Library Identifies 7-Acylaminodibenzoxazepinones as Potent and Selective Hits for Anti-Giardia Drug Discovery” (Biomedicines, 2022).
# Test system: G. duodenalis BRIS/91/HEPU/1279
# Experiment: Primary Giardia screen at 10 µM (live-cell imaging, automated counting)
# Assay type: cell-based, Giardia duodenalis
# Conditions: for % Inhibition n=1 48h / % Inhibition n=1 24h: first singlicate assay; for % Inhibition n=2 24h / % Inhibition n=2 48h: re-assessment
# Summary of the method: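 One concentration, 10 μM, is screened per compound in singlicate under microaerophilic gas (3% O2, 5% CO2, N2). Inhibition comes from automated image-based counts at 24 and 48 h, relative to 0.2% DMSO controls.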
SMILES,% Inhibition n=1 48h [%],further results
CCOc1ccc(CNC(=O)c2cccc(NC(=O)c3nnc(C4CC4)s3)c2)cc1 [SN00790732],0.0,–
O=C(c1ccc[nH]c1=S)N1CCCC(CN2CCN(c3ccccn3)CC2)C1 (centres unmarked) [SN00780166],0.0,–
Cc1ccc(C)c(NC(=O)Cc2nc(Cn3cnc([N+](=O)[O-])c3)cs2)c1 [SN00779996],47.9,Average % Inhibition 24h: 8.5%; % Inhibition n=1 24h: 0.0%; % Inhibition n=2 24h: 16.9%; Average % Inhibition 48h: 59.9%; % Inhibition n=2 48h: 71.9%
CCC1(N2CCN(C)CC2)CCN(S(=O)(=O)c2ccccc2)C1 (centres unmarked) [SN00802274],2.6,–
O=C(NCC1(c2ccccc2)CCOCC1)c1ccc(Br)cc1 [SN00783501],61.1,Average % Inhibition 24h: 8.8%; % Inhibition n=1 24h: 16.8%; % Inhibition n=2 24h: 0.9%; Average % Inhibition 48h: 37.7%; % Inhibition n=2 48h: 14.4%
NC(=O)c1cn(Cc2nc(-c3ccoc3)no2)nc1-c1ccccc1 [SN00770936],0.0,–
O=C(c1cccc(N2CCNC(c3ccccc3)C2)n1)N1CCN(c2ccccc2)CC1 (centres unmarked) [SN00800322],13.5,–
CC(NC(=O)Cc1csc(Cc2ccccn2)n1)c1ccc(F)cc1 (centres unmarked) [SN00779507],0.0,–
COc1ccc(CN2CCCN(c3ncnc4ccccc34)CC2)cc1 [SN00775453],0.0,–
O=C(C1CCC1)N1CCCc2cc(S(=O)(=O)Nc3ccccc3)ccc21 [SN00793348],0.0,–
C1CNCC2CCCN2C1 (centres unmarked) [SN00781270],3.1,–
CCOc1ccc(S(=O)(=O)N(C)Cc2c(C)nn(C)c2C)cc1 [SN00802962],2.3,–
COc1ccc(NC(=O)N2CCN(CC3CCCCN3C)CC2)cn1 (centres unmarked) [SN00773239],0.0,–
NC1=C(c2nc3ccccc3s2)CC(=O)N1C1CC1 [SN00776353],0.0,–
Cc1nc(-c2cccc(N3CC(C(=O)NCc4ccccc4)CC3=O)c2)no1 (centres unmarked) [SN00789781],0.0,–
COc1ccc(-c2cc(N3CCN(C(=O)Cc4ccc(F)cc4)CC3)[nH]n2)cc1 [SN00800353],0.0,–
O=C(c1ccc2[nH]cnc2c1)N1CCN(Cc2cccc(Cl)c2)CC1 [SN00774568],0.0,–
O=C(Nc1nnc(-c2ccccn2)[nH]1)C1CC(=O)N(CC(F)(F)F)C1 (centres unmarked) [SN00776806],9.5,–
CCC(=O)N1CC(C(=O)NCCN(C)C)C2(CCOCC2)C1 (centres unmarked) [SN00802145],13.1,–
CCOC(=O)CC(NC(=O)Nc1cc(F)c2[nH]c(=O)ccc2c1)c1ccccc1 (centres unmarked) [SN00795424],4.9,–
COc1cccc(C(=O)n2nc(-c3cccnc3)nc2NCc2ccc(C)cc2)c1 [SN00788624],24.5,–
CSc1ccc(CNC(=O)C2CCN(S(=O)(=O)c3ccc(-c4ccn[nH]4)o3)CC2)cc1 [SN00790551],11.7,–
CC1(c2ccco2)NC(=O)N(NC(=O)c2sc3ccccc3c2Cl)C1=O (centres unmarked) [SN00771283],16.0,–
Cc1cccc(C2=NC3(CCN(C(=O)NC4CCCCC4)CC3)NC2=O)c1 [SN00792717],13.8,–
Cc1nnc2n1CCN(C(=O)c1cnc(-c3ccccc3)s1)C2 [SN00807889],22.7,–
Cc1ccc(-c2cc(C(=O)N3CC(C)CC(C)C3)c3ccccc3n2)o1 (centres unmarked) [SN00783691],7.2,–
CNc1cccnc1OC1CCN(C(=O)CCc2nc3ccccc3[nH]2)C1 (centres unmarked) [SN00799967],11.3,–

SMILES,% Inhibition n=1 48h [%],further results
CCCCN(CCCC)S(=O)(=O)c1ccc2c(c1)CCCC(=O)N2 [SN00788526],27.2,–
Cc1ccc(-n2nnc(-c3nc(-c4ccc5c(c4)OCO5)no3)c2N)cc1 [SN00787754],0.0,–
COc1ccccc1NC(=O)N1Cc2c(sc3c2CCN(C)C3)-n2cccc2C1C (centres unmarked) [SN00791542],24.5,–
COc1ccc(NC(=O)c2cc(C(F)(F)F)n(C)n2)cc1 [SN00786766],0.0,–
Cc1[nH]c(=O)sc1S(=O)(=O)N1CCN(c2ccccc2[N+](=O)[O-])CC1 [SN00779481],0.0,–
CN1C(=O)CC[C@]2(CNC(=O)C3(c4ccccc4)CC3)CCC[C@@H]12 [SN00801306],21.4,–
Cc1nnc(NC(=O)c2ccc3c(=O)n4c(nc3c2)CCCCCC4)s1 [SN00777547],37.7,–
CCC(=O)N1CCCc2ccc(NS(=O)(=O)c3ccc(F)c(C)c3)cc21 [SN00792263],17.5,–
CC1(C(=O)NC2CCCCCCC2)CN(S(C)(=O)=O)CC(=O)N1c1ccc(F)cc1 (centres unmarked) [SN00787900],11.9,–
O=C(Nc1ccccc1)NC(c1ccccc1)c1nnc(-c2ccccc2Cl)o1 (centres unmarked) [SN00784775],0.0,–
CC1(C(=O)NCc2cccc(F)c2)CCCN(C(=O)Cc2cccs2)C1 (centres unmarked) [SN00795886],29.2,–
Cc1ccc2oc(-c3noc(C4CC(=O)N(c5ccccc5)C4)n3)c(C)c2c1 (centres unmarked) [SN00796597],2.9,–
CCCn1nnc(NCc2ccc(OCc3ccccc3)cc2)n1 [SN00794214],16.1,–
Cc1cc(C(=O)N2CCC(Oc3ccccc3)CC2)[nH]n1 [SN00775052],4.5,–
COc1ccc(-c2cccc(NC(=O)c3ccccc3Br)c2)nn1 [SN00799416],16.0,–
CCOc1ccccc1CNC(=O)c1nc(C(C)C)oc1C [SN00802425],24.0,–
Cc1nc(N(C)C)ncc1C(=O)O [SN00784957],3.0,–
COCCN1CCC(N2CCCN(C(=O)NCCc3ccccc3)CC2)C1=O (centres unmarked) [SN00802413],1.7,–
COc1cc(C(=O)NCC2(c3ccccc3)CCOCC2)cc(OC)c1OC [SN00783529],6.5,–
CCOc1ccc2nc(C(=O)N3CCN(c4cccc(C)c4C)CC3)cn2n1 [SN00799885],9.3,–
CC1(c2ccco2)NC(=O)N(CC(=O)c2ccccc2)C1=O (centres unmarked) [SN00771276],12.8,–
Cc1ccsc1CCNC(=O)c1cnn2c(=O)c3c(n(C)c12)CCN(Cc1ccccc1)C3 [SN00788935],17.0,–
CN(C)[C@@H]1CN(C(=O)c2ccco2)CC[C@]1(O)c1ccccc1 [SN00801222],3.1,–
O=C(c1cnccn1)N1CCN(C(=O)C2CCCC2)CC1 [SN00774707],8.7,–
O=C(Cn1cnc([N+](=O)[O-])n1)NCCc1ccccc1 [SN00783937],33.8,–
COc1cccc(-c2noc(C3CCCCN3C(=O)Nc3ccc(Cl)cc3Cl)n2)c1 (centres unmarked) [SN00802548],5.7,–
COc1cccc([C@H]2C[C@@H](C(F)(F)F)n3ncc(C(=O)N4CCCCC4)c3N2)c1 (relative stereo) [SN00783803],0.0,–

SMILES,% Inhibition n=1 48h [%],further results
COc1ccc(S(=O)(=O)Nc2cc3c(cc2NCc2ccccc2)n(C)c(=O)n3C)cc1OC [SN00784765],14.1,–
Cc1ccc(NS(=O)(=O)c2ccc(-c3nnc(C)o3)s2)cc1 [SN00789919],5.1,–
Cc1c(C(=O)O)sc2ncnc(NC3CCCCCC3)c12 [SN00793181],3.6,–
CC(=O)NCc1ccc(C(=O)N2CCCCC(N3CCCC3)C2)cc1 (centres unmarked) [SN00783239],4.5,–
CCc1ccc(NC(=O)Cn2nc3n(c2=O)CCCC3)cc1 [SN00801641],9.1,–
O=C(CCC(=O)N1CCCC1c1nc2ccccc2[nH]1)c1ccccc1 (centres unmarked) [SN00776900],28.7,–
Cc1ccc(-c2noc(-c3ccc(N4CCN(Cc5ccc6c(c5)OCO6)CC4)nc3)n2)cc1 [SN00796635],7.2,–
CCOC(=O)c1cc2n(n1)CC(C)(C(=O)NCCC(C)C)N(CCc1cccs1)C2=O (centres unmarked) [SN00785530],6.6,–
CCOc1ccc(-n2c(=O)c3c4c(sc3n(Cc3cccnc3)c2=O)CCC4)cc1 [SN00784617],0.0,–
COc1cccc(C(=O)NC2(C(F)(F)F)C(=O)N(Cc3ccccc3)C(C)=C2C(C)=O)c1 (centres unmarked) [SN00784101],2.9,–
COc1ccc(S(=O)(=O)N2CCN(C(=O)c3cc(C)n(C(C)C)c3C)CC2)cc1OC [SN00774751],14.4,–
COc1cccc(CNC(=O)Cn2ccc3sccc3c2=O)c1 [SN00797886],6.6,–
CCN1CCN(C(=O)c2ccc(N3CCCC3=O)cc2)CC1 [SN00784919],8.8,–
CCOC(=O)c1ccc(NC(=O)c2nc(C)n(C3CCN(C(C)=O)CC3)c2C)cc1 [SN00800452],13.2,–
Cc1ccc(NC(=O)Cn2c(C)cc(C)c(-c3nc(-c4ccc5c(c4)OCO5)no3)c2=O)cc1 [SN00792912],3.6,–
COc1ccc(C(=O)Nc2cc(-c3nc(C)cs3)sc2C)cc1OC [SN00798474],27.2,–
O=C(Nc1ccc(Br)cc1)c1ccc(F)c(S(=O)(=O)NCCc2ccccc2)c1 [SN00794458],3.9,–
O=C(CCN1C(=O)CCC1=O)N1CCCC(N2CCCCCC2)C1 (centres unmarked) [SN00772233],7.1,–
COc1ccc(-n2ccn3c(CCC(=O)Nc4cc(C)cc(C)c4)nnc3c2=O)cc1 [SN00781639],16.2,–
CCc1ncc2c(n1)CN(Cc1nc(-c3ccco3)oc1C)CC2 [SN00783272],0.0,–
CC(C)n1cc2cc(C(=O)NCCCN3CCCc4ccccc43)sc2c1 [SN00802034],3.6,–
Cc1ccc(-n2nc(C)c3sc(N4CCCC(C(=O)NCc5ccc6c(c5)OCO6)C4)nc32)cc1 (centres unmarked) [SN00796247],0.0,–
Cn1cnc2c1CCN(Cc1csc(-c3ccco3)n1)C2 [SN00781992],24.5,–
COc1ccccc1NC(=O)c1cn2c3c(cc(Br)cc3c1=O)CC2 [SN00794326],11.4,–
COc1ccccc1-c1cc(C(=O)Nc2sc(Nc3ccccc3)nc2C(N)=O)[nH]n1 [SN00792956],11.1,–
